According to ChEMBL document CHEMBL6134808, “Sertraline and Astemizole Enhance the Deubiquitinase Activity of USP7 by Binding to Its Switching Loop Region” (J Med Chem, 2025):
Activity calls are given as the source filed them. The calls are words filed in the database; no cut-off is given here.

Experiments:
[1] = species: Homo sapiens; test: Binding affinity to MTSL-labeled USP7CD-CTP N1102C mutant (unknown origin) expressed in Escherichia coli BL21(DE3) assessed as complex formation of compound and CTP with switching loop region of USP7 at 200 uM by CPMG spectral analysis; details: filed as activator
[2] = target: T1, Ubiquitin carboxyl-terminal hydrolase 7 (Homo sapiens, UniProt Q93009); test: Activation of USP7 catalytic domain (208 to 560 residues) (unknown origin) expressed in Escherichia coli BL21(DE3) assessed as Ub-AMC hydrolysis preincubated for 15 mins followed by Ub-AMC addition and measured every 1 min by fluorescence based analysis
Target sequence in this assay (Q93009 whole entry, the tested form may be a part): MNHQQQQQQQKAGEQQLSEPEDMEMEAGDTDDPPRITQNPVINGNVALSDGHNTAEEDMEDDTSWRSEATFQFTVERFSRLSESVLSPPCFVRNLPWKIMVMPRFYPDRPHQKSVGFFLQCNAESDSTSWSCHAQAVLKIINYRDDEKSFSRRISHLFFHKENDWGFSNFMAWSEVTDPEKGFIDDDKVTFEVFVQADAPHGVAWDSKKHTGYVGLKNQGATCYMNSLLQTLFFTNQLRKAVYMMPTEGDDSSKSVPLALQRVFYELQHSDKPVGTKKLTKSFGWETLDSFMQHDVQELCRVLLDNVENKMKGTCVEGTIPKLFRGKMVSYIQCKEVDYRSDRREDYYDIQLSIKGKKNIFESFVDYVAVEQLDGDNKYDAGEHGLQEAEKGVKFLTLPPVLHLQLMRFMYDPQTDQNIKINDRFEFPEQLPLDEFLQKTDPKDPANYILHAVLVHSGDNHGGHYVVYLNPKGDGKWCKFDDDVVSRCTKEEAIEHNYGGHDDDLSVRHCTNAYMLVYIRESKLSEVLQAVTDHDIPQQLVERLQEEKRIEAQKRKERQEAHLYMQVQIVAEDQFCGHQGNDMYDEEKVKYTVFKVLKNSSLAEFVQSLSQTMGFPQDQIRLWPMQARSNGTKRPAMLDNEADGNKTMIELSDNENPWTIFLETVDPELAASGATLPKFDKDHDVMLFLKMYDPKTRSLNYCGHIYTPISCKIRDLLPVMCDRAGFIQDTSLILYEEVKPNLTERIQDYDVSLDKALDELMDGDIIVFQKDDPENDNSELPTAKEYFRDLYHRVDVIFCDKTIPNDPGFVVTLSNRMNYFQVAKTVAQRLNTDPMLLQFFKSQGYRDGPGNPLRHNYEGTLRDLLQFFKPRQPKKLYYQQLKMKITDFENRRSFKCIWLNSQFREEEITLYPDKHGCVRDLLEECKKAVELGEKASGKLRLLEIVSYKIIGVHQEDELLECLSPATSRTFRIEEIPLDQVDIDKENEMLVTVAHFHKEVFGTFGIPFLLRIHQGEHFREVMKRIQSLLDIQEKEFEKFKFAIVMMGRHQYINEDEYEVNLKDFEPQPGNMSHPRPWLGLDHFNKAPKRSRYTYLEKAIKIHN

[3] = target: T1, Ubiquitin carboxyl-terminal hydrolase 7; test: Activation of USP7 catalytic domain (208 to 560 residues) (unknown origin) expressed in Escherichia coli BL21(DE3) assessed as upregulation of Kcat of enzyme using Ub-AMC as substrate at 200 uM preincubated for 15 mins followed by Ub-AMC addition and measured for 1 hr by fluorescence based analysis; details: filed as activator, time 75.0 min
Target sequence in this assay (Q93009 whole entry, looked up, the tested form may be a part): as the sequence (Q93009 whole entry, the tested form may be a part) above

[4] = target: T1, Ubiquitin carboxyl-terminal hydrolase 7; test: Activation of USP7 catalytic domain (208 to 560 residues) (unknown origin) expressed in Escherichia coli BL21(DE3) assessed as decrease in thermal stability of protein at 250 uM by SYPRO orange dye based fluorescence analysis; details: filed as activator
Target sequence in this assay (Q93009 whole entry, looked up, the tested form may be a part): as the sequence (Q93009 whole entry, the tested form may be a part) above

[5] = target: T1, Ubiquitin carboxyl-terminal hydrolase 7; details: filed as activator
Target sequence in this assay (Q93009 whole entry, looked up, the tested form may be a part): as the sequence (Q93009 whole entry, the tested form may be a part) above

[6] = target: T1, Ubiquitin carboxyl-terminal hydrolase 7; details: filed as activator, time 15.0 min
Target sequence in this assay (Q93009 whole entry, looked up, the tested form may be a part): as the sequence (Q93009 whole entry, the tested form may be a part) above

[7] = test system: Ubiquitin carboxyl-terminal hydrolase 7 (Homo sapiens), Q93009 [L757P]; details: filed as activator, time 15.0 min
[8] = test system: Ubiquitin carboxyl-terminal hydrolase 7 (Homo sapiens), Q93009 [I766T]; details: filed as activator, time 15.0 min
[9] = test system: Ubiquitin carboxyl-terminal hydrolase 7 (Homo sapiens), Q93009 [D1080N]; details: filed as activator, time 15.0 min
Ubiquitin carboxyl-terminal hydrolase 7 (Homo sapiens), Q93009 [D1080N], sequence (Q93009 whole entry D1080N): as the sequence (Q93009 whole entry, the tested form may be a part) above, with D1080N counted along it

Ubiquitin carboxyl-terminal hydrolase 7 (Homo sapiens), Q93009 [I766T], sequence (Q93009 whole entry I766T): as the sequence (Q93009 whole entry, the tested form may be a part) above, with I766T counted along it
Ubiquitin carboxyl-terminal hydrolase 7 (Homo sapiens), Q93009 [L757P], sequence (Q93009 whole entry L757P): as the sequence (Q93009 whole entry, the tested form may be a part) above, with L757P counted along it

Row | Activity [1] | EC50 [2] | Activity [3] | Activity [4] | EC1.5 [5] | EC1.5 [6] | EC1.5 [7] | EC1.5 [8] | EC1.5 [9] | SMILES
1 | Active | – | – | – | – | – | – | – | – | CN[C@H]1CC[C@@H](c2ccc(Cl)c(Cl)c2)c2ccccc21
2 | Active | 32.2 µM | Active | Active | 5.61 µM | 2.19 µM | 8.98 µM | 1.27 µM | 6.54 µM | COc1ccc(CCN2CCC(Nc3nc4ccccc4n3Cc3ccc(F)cc3)CC2)cc1 [ASTEMIZOLE]
